Assay results reported in patent US20110224159A1, “BIDESMOSIDIC BETULIN AND BETULINIC ACID DERIVATIVES AND USES THEREOF AS ANTITUMOR AGENTS” (Universite du Quebec a Chicoutime, priority 2008, published 2011).
Entries after “also recorded” stand apart in the source; their conditions may differ. Where two headings read alike, the source gives them in different places.

Experiments:
lung carcinoma (A549) [1] = assay: Cytotoxicity assay (resazurin reduction, 48 h), A549; type: cell-based, human
Experimental: (§1) Human lung carcinoma (A549, ATCC # CCL-185™), human colorectal adenocarcinoma (DLD-1, ATCC # CCL-221™), human breast adenocarcinoma (MCF7, ATCC # HTB-22™), human prostate adenocarcinoma (PC-3, ATCC # CCL-1435™) and human normal skin fibroblasts (WS1, ATCC # CRL-1502™) cell lines were obtained from the American Type Culture Collection (ATCC). All cell lines were cultured in minimum essential medium containing Earle's salts and L-glutamine (Mediatech Cellgro, VA), to which were added 10% fetal bovine serum (Hyclone), vitamins (1×), penicillin (100 IU/mL) and streptomycin (100 μg/mL), essential amino acids (1×), and sodium pyruvate (1×) (Mediatech Cellgro, VA). Cells were kept at 37° C. in a humidified environment containing 5% CO2.
(§2) Exponentially growing cells were plated in 96-well microplates (Costar, Corning Inc.) at a density of 5×10^3 cells per well in 100 μL of culture medium and were allowed to adhere for 16 h before treatment. Increasing concentrations of each compound in biotechnology performed certified dimethyl sulfoxide (DMSO) (Sigma-Aldrich, Cat. # D2438) and the cells were incubated for 48 h. The final concentration of DMSO in the culture medium was maintained at 0.5% (v/v) to avoid solvent toxicity. Cytotoxicity was assessed using resazurin (O'Brien, J. et al., 2000. Eur J Biochem 267(17): 5421-6) on an automated 96-well Fluoroskan Ascent F1™ plate reader (Labsystems) using excitation and emission wavelengths of 530 and 590 nm, respectively. Fluorescence was proportional to the cellular metabolic activity in each well. Survival percentage was defined as the fluorescence in experimental wells compared to that in control wells after subtraction of blank values. Each experiment was carried out twice in triplicate. IC50 results are expressed as mean±standard deviation.
(§3) In vitro cytotoxic activity of lupane-type bidesmosidic saponins was evaluated against four human cancer cell lines including lung carcinoma (A549), and colorectal (DLD-1), breast (MCF7) and prostate (PC-3) adenocarcinomas. The parent triterpenoids betulin (1) (Gauthier et al., 2006, supra), betulinic acid (2) (Kessler, J. H. et al., Cancer Lett. 2007, 251: 132-145) and the clinically used etoposide were used as positive controls. The cytotoxicity of 28-O-β-D-glucopyranosides of betulin (Gauthier et al., 2006, supra) and betulinic acid (Baglin et al., 2003, supra) was also investigated. The cell viability was assessed through resazurin reduction test (O'Brien et al, 2000, supra) after 48 hours of incubation between the compounds and cells. Since resazurin (Alamar blue) is a nontoxic dye, measurements can be obtained without killing the cells as opposed to the standard MTT assay (Bellamy, W. T. Drugs 1992, 44: 690-708). The cytotoxicity results were expressed as the concentration inhibiting 50% of the cell growth (IC50).

[2] = tested on: prostate adenocarcinoma (PC-3); assay: Cytotoxicity assay (resazurin reduction, 48 h), PC-3; type: cell-based, human
Experimental: as §1, §2, §3

[3] = tested on: colorectal adenocarcinoma (DLD-1); assay: Cytotoxicity assay (resazurin reduction, 48 h), DLD-1; type: cell-based; details: mean ± SD
Experimental: as §1, §2, §3

[4] = tested on: breast adenocarcinoma (MCF7); assay: Cytotoxicity assay (resazurin reduction, 48 h), MCF7; type: cell-based, human
Experimental: as §1, §2, §3

[5] = tested on: tested cancer cell lines (A549, DLD-1, MCF7, PC-3); assay: Cytotoxicity assay (resazurin reduction, 48 h), summary over the tested cancer cell lines; type: cell-based, human; details: for IC50: range or bound over the cell lines, read-out: IC50 against the tested cancer cell lines; for cytotoxicity compared with reference or other tested compounds: tested cancer cell lines, P<0.05 where stated
Experimental: as §1, §2
as §3, with “The cytotoxicity results were expressed as the concentration inhibiting 50% of the cell growth (IC50).” left out

lung carcinoma (A549) [6] = details: human lung carcinoma; footnote g: previously reported in Gauthier et al. 2006; cited from earlier work
[7] = tested on: colorectal adenocarcinoma (DLD-1); details: human colorectal adenocarcinoma; footnote g: previously reported in Gauthier et al. 2006; cited from earlier work
[8] = human lung carcinoma, 48 h, resazurin, mean ± SD
[9] = human prostate adenocarcinoma, 48 h, resazurin, mean ± SD, read-out: IC50 PC-3
[10] = human colorectal adenocarcinoma
[11] = human breast adenocarcinoma, 48 h, resazurin, mean ± SD, read-out: IC50 MCF7

Compound	IC50 (lung carcinoma (A549) [1]; [8]) [µM]	IC50 [2, 9] [µM]	IC50 [3, 10] [µM]	IC50 [4, 11] [µM]	further results
C=C(C)[C@@H]1CC[C@]2(C(=O)O[C@@H]3O[C@H](CO)[C@@H](O)[C@H](O)[C@H]3O)CC[C@]3(C)[C@H](CC[C@@H]4[C@@]5(C)CC[C@H](O[C@@H]6O[C@H](CO)[C@@H](O)[C@H](O)[C@H]6O)C(C)(C)[C@@H]5CC[C@]43C)[C@@H]12 [Compound 21b, 28-O-β-D-Glucopyranosyl betulinic acid 3β-O-β-D-glucopyranoside]	> 100	66 ± 3	> 100	20 ± 2	cytotoxicity compared with betulinic acid, MCF7 ([4]; breast adenocarcinoma (MCF7)): significantly more active than betulinic acid (2)
C=C(C)[C@@H]1CC[C@]2(CO[C@@H]3O[C@H](CO)[C@@H](O)[C@H](O)[C@H]3O)CC[C@]3(C)[C@H](CC[C@@H]4[C@@]5(C)CC[C@H](O[C@@H]6OC[C@H](O)[C@H](O)[C@H]6O)C(C)(C)[C@@H]5CC[C@]43C)[C@@H]12 [Compound 16a, 28-O-β-D-Glucopyranosyl betulin 313-O-α-L-arabinopyranoside]	> 100		19 ± 2		IC50 ([2]; PC-3 cell line, read-out: IC50 against PC-3): 5.3 µM; IC50 ([4]; breast adenocarcinoma (MCF7), read-out: IC50 against MCF7): 9.5 µM
C=C(C)[C@@H]1CC[C@]2(C(=O)O[C@@H]3O[C@H](CO)[C@@H](O)[C@H](O)[C@H]3O)CC[C@]3(C)[C@H](CC[C@@H]4[C@@]5(C)CC[C@H](O[C@@H]6OC[C@H](O)[C@H](O)[C@H]6O)C(C)(C)[C@@H]5CC[C@]43C)[C@@H]12 [Compound 3, 28-O-β-D-Glucopyranosyl betulinic acid 3β-O-α-L-arabinopyranoside]	76 ± 4	68 ± 7	60 ± 5	23 ± 1	IC50 [5]: 23 to 76 µM
COc1cc([C@@H]2c3cc4c(cc3[C@@H](O[C@@H]3O[C@@H]5CO[C@@H](C)O[C@H]5[C@H](O)[C@H]3O)[C@H]3COC(=O)[C@H]23)OCO4)cc(OC)c1O [Etoposide, etoposide, reference compound]					IC50 (lung carcinoma (A549) [1]; A549, human lung carcinoma, 48 h, resazurin, mean ± SD): 3.4 ± 0.1 µM; IC50 ([3]; DLD-1, human colorectal adenocarcinoma): 27 ± 5 µM
28-O-β-D-Glucopyranosyl betulin [Compound 28GBet, reference compound]		> 100	> 100	> 100	IC50 (lung carcinoma (A549) [6]): > 100 µM
C=C(C)[C@@H]1CC[C@]2(C(=O)O[C@@H]3O[C@H](CO)[C@@H](O)[C@H](O)[C@H]3O)CC[C@]3(C)C(CC[C@@H]4[C@@]5(C)CC[C@H](O)C(C)(C)[C@@H]5CC[C@]43C)[C@H]12 (stereo partly drawn) [Compound 28GBetA, 28-O-β-D-glucopyranosyl betulinic acid, reference compound]	> 100	> 100	> 100	> 100	
C=C(C)[C@@H]1CC[C@]2(CO[C@@H]3O[C@@H](C)[C@H](O)[C@@H](O)[C@H]3O)CC[C@]3(C)[C@H](CC[C@@H]4[C@@]5(C)CC[C@H](O[C@@H]6O[C@@H](C)[C@H](O)[C@@H](O)[C@H]6O)C(C)(C)[C@@H]5CC[C@]43C)[C@@H]12 [Compound 22a, 28-O-α-L-Rhamnopyranosyl betulin 3β-O-α-L-rhamnopyranoside]	1.9 ± 0.1	1.8 ± 0.1	1.9 ± 0.1	1.7 ± 0.2	IC50 [5]: 1.7 to 1.9 µM; cytotoxicity compared with reference or other tested compounds [5]: significantly more active than their parent triterpenoids; also recorded: the most potent of all tested compounds
28-O-α-L-Rhamnopyranosyl betulinic acid 3β-O-α-L-rhamnopyranoside [Compound 22b]	7.2 ± 0.5	7.2 ± 0.5	7.3 ± 0.3	6 ± 0.6	cytotoxicity compared with reference or other tested compounds [5]: significantly more active than their parent triterpenoids
C=C(C)[C@@H]1CC[C@]2(C(=O)O[C@@H]3O[C@H](CO)[C@@H](O)[C@H](O)[C@H]3O)CC[C@]3(C)[C@H](CC[C@@H]4[C@@]5(C)CC[C@H](O[C@@H]6O[C@@H](C)[C@H](O)[C@@H](O)[C@H]6O)C(C)(C)[C@@H]5CC[C@]43C)[C@@H]12 [Compound 19, 28-O-β-D-Glucopyranosyl betulinic acid 3β-O-α-L-rhamnopyranoside]	23 ± 1	11.2 ± 0.8	11 ± 0.5	5.7 ± 0.6	
C=C(C)[C@@H]1CC[C@]2(CO[C@@H]3O[C@H](CO)[C@@H](O)[C@H](O)[C@H]3O)CC[C@]3(C)[C@H](CC[C@@H]4[C@@]5(C)CC[C@H](O[C@@H]6O[C@H](CO)[C@@H](O)[C@H](O)[C@H]6O)C(C)(C)[C@@H]5CC[C@]43C)[C@@H]12 [Compound 21a, 28-O-β-D-Glucopyranosyl betulin 3β-O-β-D-glucopyranoside]	> 100	> 100	27 ± 2	14.5 ± 0.9	cytotoxicity compared with betulinic acid, MCF7 ([4]; breast adenocarcinoma (MCF7)): significantly more active than betulinic acid (2)
C=C(C)[C@@H]1CC[C@]2(C(=O)O)CC[C@]3(C)[C@H](CC[C@@H]4[C@@]5(C)CC[C@H](O)C(C)(C)[C@@H]5CC[C@]43C)[C@@H]12 [Compound 2, Betulinic acid]		40 ± 2		41 ± 1	IC50 [7]: 15 µM; IC50 (lung carcinoma (A549) [6]): 10.3 ± 0.4 µM
28-O-β-D-Glucopyranosyl betulin 313-O-α-L-rhamnopyranoside [Compound 16b]	16.8 ± 0.9	6.9 ± 0.4	10.6 ± 0.9	9 ± 0.7	
betulinic acid 3 β-O-α-L-rhamnopyranoside [reference compound]					IC50 (lung carcinoma (A549) [1]; A549, comparator named in text): 3.8 µM
